The values below come from paper PMC4257560, “Synthesis and Functional Characterization of Substituted Isoquinolinones as MT2-Selective Melatoninergic Ligands” (PLoS ONE, 2014).

Where two headings read alike, the source gives them in different places. Marks after values point to notes of the source that are not given here.

The target of data set [1] is T1, MT1 (Homo sapiens, UniProt P48039). Kind of data set: Intracellular Ca2+ mobilization (FLIPR) in MT1-CHO cells co-expressing 16z25. Also on record: expressed in transfected cells. It is filed as cell-based. The settings on record: for MT1 %Resp ±SEM, Ca2+ signal: percentage of melatonin (MT)-mediated stimulation of Ca2+ signal. The method, then: (§1) Tested compounds in different concentrations were diluted in assay buffer in 5× of the final desired concentrations in a V-bottomed microplate, and both the cell and compound plates were put into the fluorometric imaging plate reader FLIPR^TETRA (Molecular Devices, Sunnyvale, CA). […] The peak of the time course of fluorescence changes was expressed in relative fluorescence units (RFU). Dose response curves were constructed by non-linear regression using GraphPad Prism 3.
T1 sequence (P48039 whole entry): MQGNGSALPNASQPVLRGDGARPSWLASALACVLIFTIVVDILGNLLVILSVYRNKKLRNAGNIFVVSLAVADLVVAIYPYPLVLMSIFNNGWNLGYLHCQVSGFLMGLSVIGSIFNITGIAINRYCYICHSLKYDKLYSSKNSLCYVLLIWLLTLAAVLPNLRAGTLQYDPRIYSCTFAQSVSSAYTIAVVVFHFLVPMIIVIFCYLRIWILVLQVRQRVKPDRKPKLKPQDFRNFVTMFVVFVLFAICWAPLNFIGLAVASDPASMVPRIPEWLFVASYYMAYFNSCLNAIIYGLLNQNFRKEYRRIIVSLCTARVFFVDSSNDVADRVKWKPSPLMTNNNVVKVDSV

Data set [2] has as its target T1, MT1. Kind of data set: Immunodetection of ERK phosphorylation in MT1-CHO cells. The data set is classed as cell-based. Details: expressed in transfected cells. The settings on record: for concentration inducing weak ERK phosphorylation in MT1-CHO cells: immunoblot. As to the method: (§2) CHO cells expressing MT1 or MT2 were serum-starved before treating with the indicated concentrations of melatonin or individual tested compounds. Resolved proteins were electrotransferred for immunodetection using phosphorylated ERK-specific antibody.
(§3) (A) CHO cells expressing MT1 or MT2 were treated with the indicated concentrations of 7e or luzindole in the absence or presence of a fixed concentration of melatonin (MLT) (for both MT1 or MT2) or 7b (for MT2 only). Other experimental details were as to the legend of Figure 5. Data shown were representative blots of three separate trials. (B) CHO cells expressing MT2 were treated with increasing concentrations (1 ρM – 1 µM) of melatonin in the absence or presence of 10 µM or 1 µM of 7e or 7f. Other experimental details were as to the legend of Figure 4.
(§4) 2×10^5 cells were seeded into each well of 12-well plates for overnight before serum withdrawal for 4 h to reduce the basal ERK phosphorylation. Tested compounds were diluted in serum-free culture medium at desired concentrations and treated the cells for 5 min. Reactions was stopped by aspiration and then adding 150 µl of lysis buffer with protease inhibitors (50 mM Tris–HCl, pH 7.5, 100 mM NaCl, 5 mM EDTA, 40 mM NaP2O7, 1% Triton X-100, 1 mM dithiothreitol, 200 µM Na3VO4, 100 µM phenylmethylsulfonyl fluoride, 2 µg/ml leupeptin, 4 µg/ml aprotinin, and 0.7 µg/ml pepstain). Cells were allowed to lyse for 30 min at 4°C with agitation, and the collected total cell lysates were cleared by centrifugation. Protein samples were resolved in SDS-PAGE and transferred to nitrocellulose membranes using iBlot system (Invitrogen). Phosphorylated ERK was detected using specific antibodies as described previously. Chemiluminescence signals on the blots were detected on X-ray films.

The target of data set [3] is T2, MT2 (Homo sapiens, UniProt P49286).
T2 sequence (P49286 1-362): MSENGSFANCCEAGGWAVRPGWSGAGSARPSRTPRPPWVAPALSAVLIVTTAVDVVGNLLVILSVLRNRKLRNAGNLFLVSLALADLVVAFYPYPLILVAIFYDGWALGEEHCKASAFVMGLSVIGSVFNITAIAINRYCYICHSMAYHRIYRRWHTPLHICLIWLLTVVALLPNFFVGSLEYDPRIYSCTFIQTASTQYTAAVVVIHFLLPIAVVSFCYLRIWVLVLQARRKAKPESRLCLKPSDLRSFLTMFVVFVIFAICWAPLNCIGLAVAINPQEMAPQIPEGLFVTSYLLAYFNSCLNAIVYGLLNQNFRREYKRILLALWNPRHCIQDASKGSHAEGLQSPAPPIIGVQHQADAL
Protocol: (§8) Competitive receptor binding characteristics of melatonin and the 15 tested compounds towards human MT1 and MT2 stably expressed in Chinese hamster ovary (CHO) cells were determined using intact cell preparation pre-incubated with 1 nM [^3H]melatonin.
(§9) Individual melatonin receptor subtype (either MT1 or MT2) was stably co-expressed with a G protein chimera 16z25 in Chinese hamster ovary (CHO) cells, hereafter denoted as CHO-hMT1 and CHO-hMT2, respectively. […] Single cell-derived colonies of the stable lines with sufficiently high receptor density and robust responses in the fluorometric assay (as described below) were isolated from the pool of transfected cell. Usage of these clonal lines was limited to 15 passages to prevent degradation of signal detection.
(§10) Competitive binding assays were performed as described [26]. Cells were suspended in binding buffer (50 mM Tris, 2 mM MgCl2, 1 mM EGTA, pH 7.4) in the density of 1.5×10^5 cell/ml. 1 nM [^3H]melatonin and increasing concentrations of a tested compound was included. Cells were incubated at 4°C for 60 min with intermittent agitation and the reaction was stopped by rapid filtration through GF/C filters pre-soaked in 10 mM Tris, pH 7.4 and washed with 1 ml of prechilled binding buffer. Retained radioactivity was measured with Wallac 1450 Microbeta Jet scintillation counter. Competition curves were drawn as one-site competition nonlinear regression model using GraphPad Prism 3.03 to the data which were means ± SEM of 3–4 independent experiments performed in duplicates. In every assay, melatonin was included as standard reference with highly reproducible Ki values, which were calculated using the Cheng-Prusoff equation.

Data set [4] deals with T2, MT2. Briefly: Inhibition of forskolin-stimulated cAMP accumulation in MT2-CHO cells. The data set is classed as cell-based. Also on record: expressed in transfected cells. To be noted: for IC50: MT2-CHO cells, 50 µM forskolin. As to the method: (§5) Both MT1 and MT2 are classified as Gi-coupled receptors with their activation leading to inhibition of intracellular cAMP production. The ability of the tested compounds to activate the endogenously expressed Gi-mediated inhibition of cAMP production was therefore examined.
(§6) All the responses were expressed as the percentage of that induced by forskolin alone (as 100%).
(§7) 2×10^5 cells were seeded in each well of 12-well plates and grown for overnight. Each well was labeled with 1 ml of [^3H]adenine (1 µCi/ml) in F-12K medium containing 1% FBS (vol/vol) for overnight. The labeling media were then replaced by 1 ml of 20 mM HEPES-buffered F-12K containing 1 mM isobutylmethylxanthine (IBMX) and the tested compounds at desired concentrations, and incubated at 37°C for 30 min. The reaction was stopped by aspiration and adding 1 ml prechilled 5% trichloroacetic acid (w/v) with 1 mM ATP, and stored at 4°C for 30 min. [^3H]cAMP was extracted from the pool of labeled adenosine nucleotides by sequential ion-exchange chromatography as previously described. The radioactivity of labeled cAMP and total labeled nucleotide fractions separated by chromatography were estimated by scintillation counting. Inhibition curves were constructed by non-linear regression using GraphPad Prism 3.

For data set [5], the target named is T1, MT1. Kind of data set: biochemical. The settings on record: for Emax: read-out: MT1 %Resp±SEM (percentage of melatonin-mediated displacement of radioligand binding).
Protocol: as §8, §9, §10
Data set [6] deals with T2, MT2. Briefly: biochemical. The settings on record: for Ki: MT2 Ki, calculated from mean pIC50 (Cheng-Prusoff), 1 nM [3H]melatonin, intact CHO cells; for Emax: read-out: MT2 %Resp±SEM (percentage of melatonin-mediated displacement of radioligand binding).
Protocol: as §8, §9, §10
The target of data set [7] is T2, MT2. Briefly: Intracellular Ca2+ mobilization (FLIPR) in MT2-CHO cells co-expressing 16z25. Also on record: expressed in transfected cells. To be noted: for Emax: MT2, percentage of melatonin (MT)-mediated stimulation of Ca2+ signal, read-out: MT2 %Resp ±SEM, Ca2+ signal. The data set is classed as cell-based. The method, then: as §1
In data set [8] the target is T1, MT1. Kind of data set: Inhibition of forskolin-stimulated cAMP accumulation in MT1-CHO cells. The data set is classed as cell-based. Also on record: expressed in transfected cells. The method, then:
as §5, §6, §7

The target in data set [9] is T2, MT2. Kind of data set: Immunodetection of ERK phosphorylation in MT2-CHO cells. The data set is classed as cell-based. Details: expressed in transfected cells. The method, then: as §2, §3, §4
The mark [10] stands for this setting: MT2-CHO cells, FLIPR, calculated from mean pEC50, NSR = no significant response for up to 30 µM, read-out: MT2 EC50, Ca2+ mobilization.
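Wherever Selectivity, ratio Ki(MT1)/Ki(MT2) is given: competition binding on intact CHO cells stably co-expressing human MT2 with G protein chimera 16z25, displacing [3H]melatonin at 4°C over 60 min, melatonin run as reference.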
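Wherever displacement of pre-incubated [3H]melatonin at MT2 (in words) is given: competition binding on intact CHO cells stably co-expressing human MT2 with G protein chimera 16z25, displacing [3H]melatonin at 4°C over 60 min, melatonin run as reference.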

As for `COc1cccc(COc2cc3ccn(C)c(=O)c3cc2OC)c1` [7b, 7-Methoxy-6-(3-methoxy-benzyloxy)-2-methylisoquinolin-1(2H)-one], the melting point fell in the range of 85 to 87 °C. Besides, on MT1 [1], the EC50 turned out to be 0.0311 µM and the “MT1 %Resp ±SEM, Ca2+ signal” value was 63±7%. The “concentration inducing weak ERK phosphorylation in MT1-CHO cells” value on MT1 [2] is reported as above 1 µM. The “Selectivity, ratio Ki(MT1)/Ki(MT2)” value at MT2 [3] is on record as 139. Also, the “displacement of pre-incubated [3H]melatonin at MT2 (in words)” value on MT2 [3] (competitive binding, intact CHO cells) is on record as “completely displaced”. For the same molecule, the IC50 on MT2 [4] (mean ± SEM of 2 trials, read-out: MT2 pIC50 ±SEM, inhibition of cAMP production (converted)) was 0.0631 µM. For the same molecule, the “MT2 %Inhmax ±SEM” value on MT2 [4] (maximal percentage inhibition of the forskolin-elevated cAMP level, MT2-CHO) stood at 70±3%. Further, on MT1 [5], the IC50 was 16.2 µM, the Ki came to 3.7 µM and the Emax amounted to 90 ± 8%. Besides, at MT2 [6], the IC50 is 0.0891 µM, the Ki was 0.0266 µM and the Emax was determined as 92 ± 4%. The EC50 at MT2 [7] (setting [10]) was 0.0003 µM. For the same molecule, the EC50 at MT2 [7] (MT2-CHO cells, FLIPR, mean ± SEM of 3–5 trials, read-out: MT2 pEC50 ±SEM, Ca2+ mobilization (converted)) was 0.000288 µM. In addition, the Emax on MT2 [7] was found to be 92 ± 11%. Besides, on MT1 [8] (forskolin-stimulated), the “inhibition of cAMP levels in MT1-CHO cells (in words)” value was “observable inhibition”. The “MT1 %Inhmax ±SEM” value at MT1 [8] (maximal percentage inhibition of the forskolin-elevated cAMP level, MT1-CHO) is 69±8%. At MT1 [8] (read-out: MT1 IC50, inhibition of cAMP production), the IC50 worked out at 1.2 µM.
Regarding `COc1cc(COc2cc3ccn(C)c(=O)c3cc2OC)cc(OC)c1` [7c, 6-(3,5-Dimethoxy-benzyloxy)-7-methoxy-2-methylisoquinolin-1(2H)-one], the EC50 at MT1 [1] is 0.266 µM; on MT2 [7] (setting [10]), 0.021 µM. On MT1 [1], the “MT1 %Resp ±SEM, Ca2+ signal” value was found to be 65±10%. Besides, on MT1 [2], the “concentration inducing weak ERK phosphorylation in MT1-CHO cells” value is given as above 1 µM. For the same molecule, on MT2 [3], the “Selectivity, ratio Ki(MT1)/Ki(MT2)” value is 37.6. The IC50 on MT2 [4] (calculated from mean pIC50, read-out: MT2 IC50, inhibition of cAMP production) is 2.46 µM; on MT1 [5], 57.5 µM; against MT2 [6], 1.17 µM. Besides, the “MT2 %Inhmax ±SEM, extrapolated” value at MT2 [4] (extrapolated %Inhmax from non-linear regression, MT2-CHO) is on record as 72±3 ^c %. For the same molecule, the Ki is 13.1 µM at MT1 [5] and 0.35 µM on MT2 [6]. The figures for the Emax at MT1 [5], on MT2 [6] and on MT2 [7] were 41 ± 9%, 73 ± 9% and 90 ± 16%, respectively. Moreover, the “concentration to induce exclusive MT2 activation (Ca2+ signal)” value on MT2 [7] (from concentration response curves, Figure 4) was below 10 nM. Besides, at MT2 [7] (relative to 7b, MT2-CHO), the “fold less potent than 7b (EC50, Ca2+ signal, MT2)” value is on record as around 70 fold. On MT1 [8] (MT1-CHO cells, 50 µM forskolin, calculated from mean pIC50, NSR = no significant response for up to 10 µM), the “MT1 IC50, inhibition of cAMP production” value is given as “NSR ^b”.
With `CC(=O)NCCc1c(Cc2ccccc2)[nH]c2ccccc12` [luzindole, reference compound], the “suppression of melatonin-induced ERK phosphorylation in MT2-CHO cells (antagonism)” value at MT2 [9] (1 nM melatonin (MLT), 7e and 7f at 10 µM) is on record as “blocked”. Moreover, the “suppression of 7b-induced ERK phosphorylation in MT2-CHO cells (antagonism)” value at MT2 [9] (agonist 7b 100 nM, 7e at 10 µM) is listed as “blocked”. For the same molecule, the “effect on basal ERK phosphorylation in MT2-CHO cells” value on MT2 [9] (luzindole alone) was “constantly enhanced”. In addition, the “suppression of melatonin-induced ERK phosphorylation in MT1-CHO cells (antagonism)” value at MT1 [2] (1 nM melatonin (MLT)) is “blocked”. Also, the “effect on basal ERK phosphorylation in MT1-CHO cells” value on MT1 [2] (at 1 µM) is given as “completely eliminated basal ERK phosphorylation”. In addition, the values for the Ki at MT1 [5] and at MT2 [6] were 0.102 µM and 0.0029 µM, respectively. In addition, on MT2 [7] (MT2-CHO cells, FLIPR), the “Ca2+ mobilization activity at MT2 (in words)” value is on record as “weak but significant MT2-selective agonistic activity”.
